# Data as given in patent publication US20100216827A1 (Metabolex, Inc., priority 2008, published 2010).
# Where two headings read alike, the source gives them in different places.
# Target: T1, human GPR120 (Homo sapiens, UniProt Q5NUL3)
# T1 construct: host or cells: HEK293 cells coexpressing Gqi5
# T1 sequence (Q5NUL3 1-361): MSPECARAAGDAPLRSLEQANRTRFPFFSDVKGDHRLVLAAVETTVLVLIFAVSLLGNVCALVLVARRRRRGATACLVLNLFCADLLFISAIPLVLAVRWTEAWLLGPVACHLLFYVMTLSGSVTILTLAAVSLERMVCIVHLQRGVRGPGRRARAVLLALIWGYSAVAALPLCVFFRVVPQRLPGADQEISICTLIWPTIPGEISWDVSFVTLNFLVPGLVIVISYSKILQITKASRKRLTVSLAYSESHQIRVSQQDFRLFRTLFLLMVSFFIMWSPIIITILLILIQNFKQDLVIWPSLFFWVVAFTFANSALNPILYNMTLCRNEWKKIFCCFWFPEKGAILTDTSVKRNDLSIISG
# Test: Intracellular Ca2+ (FLIPR Calcium 4, Flexstation) assay in human GPR120 stable HEK293 cell line coexpressing Gqi5
# Type: cell-based
# Details: for % Activity at 5 μM: 5 μM compound compared to the maximal activity of GW9508 at 6.7 μM (100%); for EC50: human GPR120 stably expressing cells, 8 concentrations 0.00001 to 20 μM
# Outline: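 Calcium 4 dye-loaded HEK293 cells expressing N-terminally Flag-tagged human GPR120 with Gqi5 (HBSS/20 mM HEPES, pH 7.4; 50 min, 37 °C). Fluorescence (485/525 nm) read for 90 s after addition of compound at 8 concentrations, 0.00001–20 μM; EC50 from Max−Min change. % activity at 5 μM versus maximal GW9508 response (6.7 μM).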
% Activity at 5 μM,EC50 (read-out: EC50 > 10 μM),EC50 (read-out: EC50 ≦ 1 μM),EC50 (read-out: EC50 between >1 μM and ≦10 μM),Structure (SMILES)
19%,> 10000 nM,,,"Cc1cc(COc2c(F)cc(CC(C)C(=O)O)cc2F)n(-c2ncc(Cl)cn2)n1 (stereo not shown) [Example 110, 3-(4-((1-(5-Chloropyrimidin-2-yl)-3-methyl-1H-pyrazol-5-yl)methoxy)-3,5-difluorophenyl)-2-methylpropanoic acid]"
80%,,≤ 1000 nM,,"Cc1cc(COc2ccc(C=C3CC(C(=O)O)C3)cc2)n(-c2ccc(Cl)cc2)n1 (stereo not shown) [Example 111, 3-(4-((1-(4-Chlorophenyl)-3-methyl-1H-pyrazol-5-yl)methoxy)benzylidene)cyclobutanecarboxylic acid]"
83%,,,1000 to 10000 nM,"COc1cc(CC(C)C(=O)O)ccc1OCc1cc(C)nn1-c1ccc(Cl)cc1 (stereo not shown) [Example 112, 3-(4-((1-(4-Chlorophenyl)-3-methyl-1H-pyrazol-5-yl)methoxy)-3-methoxyphenyl)-2-methylpropanoic acid]"
92%,,≤ 1000 nM,,"Cc1cc(COc2c(Cl)cc(CC(C)C(=O)O)cc2Cl)n(-c2ccc(Cl)cc2)n1 (stereo not shown) [Example 113, 3-(3,5-Dichloro-4-((1-(4-chlorophenyl)-3-methyl-1H-pyrazol-5-yl)methoxy)phenyl)-2-methylpropanoic acid]"
111%,,≤ 1000 nM,,"CC(Cc1cc(F)c(OCc2c(C(F)(F)F)nn(C)c2Oc2ccccc2)c(F)c1)C(=O)O (stereo not shown) [Example 114, 3-(3,5-Difluoro-4-((1-methyl-5-phenoxy-3-(trifluoromethyl)-1H-pyrazol-4-yl)methoxy)phenyl)-2-methylpropanoic acid]"
118%,,≤ 1000 nM,,"CC(Cc1cc(F)c(OCc2c(C(F)(F)F)nn(C)c2Oc2ccc(Cl)cc2)c(F)c1)C(=O)O (stereo not shown) [Example 115, 3-(4-((5-(4-Chlorophenoxy)-1-methyl-3-(trifluoromethyl)-1H-pyrazol-4-yl)methoxy)-3,5-difluorophenyl)-2-methylpropanoic Acid]"
115%,,≤ 1000 nM,,"Cc1cc(COc2c(F)cc(CC(C)C(=O)O)cc2F)c(-c2ccccc2)o1 (stereo not shown) [Example 116, 3-(3,5-Difluoro-4-((5-methyl-2-phenylfuran-3-yl)methoxy)phenyl)-2-methylpropanoic acid]"
105%,,≤ 1000 nM,,"CC(Cc1cc(F)c(OCc2cc(C(F)(F)F)nn2-c2ccc(Cl)cc2)c(F)c1)C(=O)O (stereo not shown) [Example 117, 3-(4-((1-(4-chlorophenyl)-3-(trifluoromethyl)-1H-pyrazol-5-yl)methoxy)-3,5-difluorophenyl)-2-methylpropanoic acid]"
103%,,≤ 1000 nM,,"CCc1cc(OCc2cc(C)nn2-c2ccc(Cl)cc2)ccc1CCC(=O)O [Example 118, 3-(4-((1-(4-chlorophenyl)-3-methyl-1H-pyrazol-5-yl)methoxy)-2-ethylphenyl)propanoic acid]"
92%,,,,"O=C(O)CC1CCc2cc(OCc3cc(C(F)(F)F)nn3-c3ccc(Cl)cc3)ccc21 (stereo not shown) [Example 119, 2-(5-((1-(4-chlorophenyl)-3-(trifluoromethyl)-1H-pyrazol-5-yl)methoxy)-2,3-dihydro-1H-inden-1-yl)acetic acid]"
94%,,≤ 1000 nM,,"Cc1cc(COc2ccc3c(c2)CCC3CC(=O)O)n(-c2ccc3c(c2)CCC3)n1 (stereo not shown) [Example 120, 2-(5-((1-(2,3-dihydro-1H-inden-5-yl)-3-methyl-1H-pyrazol-5-yl)methoxy)-2,3-dihydro-1H-inden-1-yl)acetic acid]"
94%,,≤ 1000 nM,,"CCc1ccc(-n2nc(C)cc2COc2ccc3c(c2)CCC3CC(=O)O)cc1 (stereo not shown) [Example 121, 2-(5-((1-(4-ethylphenyl)-3-methyl-1H-pyrazol-5-yl)methoxy)-2,3-dihydro-1H-inden-1-yl)acetic acid]"
91%,,≤ 1000 nM,,"Cc1cc(COc2c(F)cc(CC(C)C(=O)O)cc2F)n(-c2ccccc2)n1 (stereo not shown) [Example 122, 3-(3,5-difluoro-4-((3-methyl-1-phenyl-1H-pyrazol-5-yl)methoxy)phenyl)-2-methylpropanoic acid]"
